Experimental data taken from patent US7202269B2, “GlyT2 modulators” (Janssen Pharmaceutica N.V., priority 2003, dated 2007).

target: T1, human glycine transporter-2 (GlyT2) (Homo sapiens, UniProt Q9Y345); assay: Inhibition of [14C]-glycine uptake in COS-7 cells transfected with human GlyT2; assay type: cell-based; conditions: Table 1, 20 μM, 2 h at 37° C., Cos-7 cells stably transfected with human GlyT2
T1 construct: The entire coding region of the human GlyT2 cDNA was cloned into the mammalian expression vector pClNeo; expressed in transfected cells; host or cells: Cos-7 cells (African green monkey kidney, ATCC), stably transfected, G418-selected; vector pClNeo
T1 sequence (Q9Y345 1-797): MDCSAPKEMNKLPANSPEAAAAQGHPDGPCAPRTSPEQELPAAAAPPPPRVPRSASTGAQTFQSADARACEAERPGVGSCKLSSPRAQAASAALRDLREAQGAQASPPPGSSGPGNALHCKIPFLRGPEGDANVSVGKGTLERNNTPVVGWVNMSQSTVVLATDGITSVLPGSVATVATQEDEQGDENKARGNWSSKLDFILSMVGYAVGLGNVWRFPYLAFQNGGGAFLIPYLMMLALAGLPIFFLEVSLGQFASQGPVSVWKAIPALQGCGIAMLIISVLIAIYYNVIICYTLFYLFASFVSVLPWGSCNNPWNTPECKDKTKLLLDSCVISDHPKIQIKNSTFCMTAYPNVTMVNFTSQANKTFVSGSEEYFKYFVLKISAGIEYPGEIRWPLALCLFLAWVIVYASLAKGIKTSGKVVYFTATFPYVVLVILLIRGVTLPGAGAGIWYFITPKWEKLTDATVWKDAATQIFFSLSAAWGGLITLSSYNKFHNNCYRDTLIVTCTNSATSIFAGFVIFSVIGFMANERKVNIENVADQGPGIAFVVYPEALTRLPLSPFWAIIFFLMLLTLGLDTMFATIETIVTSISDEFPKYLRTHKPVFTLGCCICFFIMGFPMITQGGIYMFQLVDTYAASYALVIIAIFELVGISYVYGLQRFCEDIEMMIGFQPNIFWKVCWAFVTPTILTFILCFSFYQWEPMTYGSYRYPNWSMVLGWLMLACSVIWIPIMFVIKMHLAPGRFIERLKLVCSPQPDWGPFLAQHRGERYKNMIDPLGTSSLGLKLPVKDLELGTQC
Method: GlyT2 antagonist activity of representative compounds of the invention was determined in accordance with the assay described in the Examples and by measuring the ability of compounds to inhibit the uptake of [^14C]-glycine in COS-7 cells transfected with the human glycine transporter-2 (GlyT2). The GlyT2 antagonist activities of these representative compounds are set forth hereinafter in Table 1.
Cos-7 cells (African green monkey, kidney) from American Type Culture Collection were grown in DMEM supplemented with 10% fetal bovine serum. The entire coding region of the human GlyT2 cDNA was cloned into the mammalian expression vector pClNeo, and then stably transfected into Cos-7 cells. Transfection was performed essentially as described by T. W. Lovenberg et al. (Mol. Pharmacol. 1999, 55:1101–1107): Briefly, cells were grown to 70–80% confluence, removed from the plate with trypsin, and pelleted in a clinical centrifuge. The pellet was resuspended in 400 μL complete medium and transferred to an electroporation cuvette with a 0.4 cm gap between the electrodes (Bio-Rad, 165–2088). One microgram of supercoiled GlyT2 cDNA was added to the cells, and the suspension was mixed. The voltage for the electroporation was set at 0.25 kV, and the capacitance was set at 960 μF. After electroporation, the cuvette contents were diluted to 10 mL with complete medium, and 0.5 mL, 1.0 mL, 2.0 mL and remainder (˜6.5 mL) portions were plated onto four 10-cm dishes. The cells were incubated 24 h before adding 600 μg/mL G418. Colonies that survived selection were isolated and tested for GlyT2 expression.
The day before the assay, the GlyT2 expressing cells were plated into 96-well scintillating microplates (Amersham, RPNQ 0160) at a density of approximately 20,000 cells per well. Cells were grown overnight at 37° C. in 5% CO2 and then washed once with 37° C. HEPES buffered saline (HBS: 150 mM NaCl, 20 mM HEPES, 1 mM CaCl2, 10 mM glucose, 5 mM KCl, 1 mM MgCl2; pH 7.4). Eighty microliters of 37° C. HBS was subsequently added to each well. Test solutions of GlyT2 inhibitors were prepared in HBS from DMSO stock solutions, and 5 μL of test solution was added to each test well. Total transport and non-specific background were determined by adding 5 μL HBS or 5 μL 2 M glycine, respectively, to the appropriate control wells. Plates were then left at rt for 5 min before the addition of 20 μL of 100 μM ^14C-glycine (NEN, NEC 048H) to each well for a final concentration of 20 μM. Plates were incubated for 2 h at 37° C. with 5% CO2. After 2 h the reaction mixtures were removed by aspiration, and the plates were washed once with ice-cold HBS. Plates were sealed with TopSeal (Packard, 6005185) and counted on a Packard TopCount® scintillation counter.

Compound	IC50 [nM]
N#C/N=C(\Nc1ccc(-c2ccccc2)cc1)N[C@@H](Cc1ccccc1)C(=O)NCCCN1CCCC1 [Example 1, (S)-2-(N′-Biphenyl-4-yl-N″-cyano-guanidino)-3-phenyl-N-(3-pyrrolidin-1-yl-propyl)-propionamide]	11
N#C/N=C(\Nc1ccc(-c2ccccc2)cc1)N[C@H](CC(=O)NCCN1CCCC1)c1ccccc1 [Example 8, (R)-3-(N′-Biphenyl-4-yl-N″-cyano-guanidino)-3-phenyl-N-(2-pyrrolidin-1-yl-ethyl)-propionamide]	31

Second part, the compound after the results:

IC50 [nM]	Compound
93	N#C/N=C(\Nc1ccc(-c2ccccc2)cc1)N[C@H](CCC(=O)NCCN1CCCC1)Cc1ccccc1 [Example 42, (R)-4-(N′-Biphenyl-4-yl-N″-cyano-guanidino)-5-phenyl-pentanoic Acid (2-pyrrolidin-1-yl-ethyl)-amide]
103	N#C/N=C(\Nc1ccc(-c2ccccc2)cc1)N[C@H](CC(=O)NCCN1CCCC1)Cc1ccccc1 [Example 53, (S)-3-(N′-Biphenyl-4-yl-N″-cyano-guanidino)-4-phenyl-N-(2-pyrrolidin-1-yl-ethyl)-butyramide]

same assay, conditions: Table 2, 20 μM, 2 h at 37° C., Cos-7 cells stably transfected with human GlyT2

Compound	IC50 [nM]
O=C(Nc1ccc(-c2ccccc2)cc1)N[C@H](CCCNCCN1CCCC1)Cc1ccccc1 [Example 2, 1-[(R)-1-Benzyl-4-(2-pyrrolidin-1-yl-ethylamino)-butyl]-3-biphenyl-4-yl-urea]	18
CC(C)N(CCNC(=O)[C@H](Cc1ccccc1)NC(=O)Nc1ccc(Oc2ccc(Cl)cc2)cc1)C(C)C [Example 3, (S)-2-{3-[4-(4-Chloro-phenoxy)-phenyl]-ureido}-N-(2-diisopropylamino-ethyl)-3-phenyl-propionamide]	18
Cc1ccc([C@@H](CC(=O)NCCN2CCCC2)NC(=O)Nc2ccc(-c3ccccc3)cc2)cc1 [Example 6, (R)-3-(3-Biphenyl-4-yl-ureido)-N-(2-pyrrolidin-1-yl-ethyl)-3-p-tolyl-propionamide]	27
O=C(/C=C/[C@H](Cc1ccccc1)NC(=O)Nc1ccc(Oc2ccc(F)cc2)cc1)NCCN1CCCC1 [Example 11, (E)-(S)-4-{3-[4-(4-Fluoro-phenoxy)-phenyl]-ureido}-5-phenyl-pent-2-enoic Acid (2-pyrrolidin-1-yl-ethyl)-amide]	39
CCN(CC)CCNC(=O)/C=C/[C@H](Cc1ccccc1)NC(=O)Nc1ccc(-c2ccccc2)cc1 [Example 19, (E)-(S)-4-(3-Biphenyl-4-yl-ureido)-5-phenyl-pent-2-enoic Acid (2-diethylamino-ethyl)-amide]	48
CC(C)NCCNC(=O)/C=C/[C@H](Cc1ccccc1)NC(=O)Nc1ccc(-c2ccccc2)cc1 [Example 21, (E)-(S)-4-(3-Biphenyl-4-yl-ureido)-5-phenyl-pent-2-enoic Acid (2-isopropylamino-ethyl)-amide]	52
CC(C)NCCNC(=O)CC[C@H](Cc1ccccc1)NC(=O)Nc1ccc(-c2ccccc2)cc1 [Example 26, (R)-4-(3-Biphenyl-4-yl-ureido)-5-phenyl-pentanoic Acid (2-isopropylamino-ethyl)-amide]	57
O=C(CNc1ccc(Oc2ccc(Cl)cc2)cc1)N[C@@H](Cc1ccccc1)C(=O)NCCN1CCCC1 [Example 27, (S)-2-{2-[4-(4-Chloro-phenoxy)-phenylamino]-acetylamino}-3-phenyl-N-(2-pyrrolidin-1-yl-ethyl)-propionamide]	58
O=C(C[C@H](Cc1ccccc1)NC(=O)CNc1ccc(Oc2ccc(Cl)cc2)cc1)NCCN1CCCC1 [Example 28, (S)-3-{2-[4-(4-Chloro-phenoxy)-phenylamino]-acetylamino}-4-phenyl-N-(2-pyrrolidin-1-yl-ethyl)-butyramide]	95

Second part, the compound after the results:

IC50 [nM]	Compound
3500	CN(C)CCN(C)C(=O)C(Cc1ccccc1)NC(=O)Nc1ccc(-c2ccccc2)cc1 (stereo not drawn) [Example 61, 2-(3-Biphenyl-4-yl-ureido)-N-(2-dimethylamino-ethyl)-N-methyl-3-phenyl-propionamide]
405	CC(C)N(CCNC(=O)[C@H](Cc1ccccc1)NC(=O)Nc1ccc(-c2cccs2)cc1)C(C)C [Example 65, (S)-N-(2-Diisopropylamino-ethyl)-3-phenyl-2-[3-(4-thiophen-2-yl-phenyl)-ureido]-propionamide]
1060	O=C(Nc1ccc(Oc2ccccc2)cc1)N[C@@H](Cc1cscn1)C(=O)NCCN1CCCC1 [Example 74, (S)-2-[3-(4-Phenoxy-phenyl)-ureido]-N-(2-pyrrolidin-1-yl-ethyl)-3-thiazol-4-yl-propionamide]
10000	O=C(Nc1ccc(-c2ccccc2)cc1)NC1(C(=O)NCCN2CCCC2)Cc2ccccc2C1 [Example 84, 2-(3-Biphenyl-4-yl-ureido)-indan-2-carboxylic Acid (2-pyrrolidin-1-yl-ethyl)-amide]
269	O=C(Nc1ccc(S(=O)(=O)c2ccc(Cl)cc2)cc1)N[C@@H](Cc1ccccc1)C(=O)NCCN1CCCC1 [Example 85, (S)-2-{3-[4-(4-Chloro-benzenesulfonyl)-phenyl]-ureido}-3-phenyl-N-(2-pyrrolidin-1-yl-ethyl)-propionamide]
76	CCCNCCNC(=O)CC[C@H](Cc1ccccc1)NC(=O)Nc1ccc(-c2ccccc2)cc1 [Example 87, (R)-4-(3-Biphenyl-4-yl-ureido)-5-phenyl-pentanoic Acid (2-propylamino-ethyl)-amide]
398	NCCNC(=O)[C@H](Cc1ccccc1)NC(=O)Nc1ccc(Oc2ccccc2)cc1 [Example 98, (S)-N-(2-Amino-ethyl)-2-[3-(4-phenoxy-phenyl)-ureido]-3-phenyl-propionamide]
112	O=C(/C=C/[C@H](Cc1ccccc1)NC(=O)Nc1ccc(-c2ccccc2)cc1)NCCN1CCCC1 [Example 101, (E)-(S)-4-(3-Biphenyl-4-yl-ureido)-5-phenyl-pent-2-enoic Acid (2-pyrrolidin-1-yl-ethyl)-amide]
500	NCCNC(=O)CC[C@H](Cc1ccccc1)NC(=O)Nc1ccc(Oc2ccccc2)cc1 [Example 111, (R)-4-[3-(4-Phenoxy-phenyl)-ureido]-5-phenyl-pentanoic Acid (2-amino-ethyl)-amide]

same assay, conditions: Table 3, 20 μM, 2 h at 37° C., Cos-7 cells stably transfected with human GlyT2

IC50 [nM]	Compound
32	O=C(NCCN1CCCC1)[C@H](Cc1ccccc1)NC(=S)Nc1ccc(Oc2ccc(Cl)cc2)cc1 [Example 9, (S)-2-{3-[4-(4-Chloro-phenoxy)-phenyl]-thioureido}-3-phenyl-N-(2-pyrrolidin-1-yl-ethyl)-propionamide]
89	O=C(CC[C@H](Cc1ccccc1)NC(=S)Nc1ccc(-c2ccccc2)cc1)NCCN1CCCC1 [Example 31, (R)-4-(3-Biphenyl-4-yl-thioureido)-5-phenyl-pentanoic Acid (2-pyrrolidin-1-yl-ethyl)-amide]
